Measured values published in US20200345725A1, “Methods and Compositions for Treating Cancer” (Omeros Corporation, priority 2019, published 2020).
Marks after values point to notes of the source that are not given here.

System: human PBMCs
Test: Th1 cytokines in supernatants of stimulated human PBMC, GPR174 inhibitor with adenosine pathway inhibitors (Examples 15, 18-22)
Assay type: cell-based
Settings: for IFN-γ fold increase (FIG. 44): Example 15; for IFN-γ, ratio relative to vehicle control (Veh column) / IL-2, ratio relative to vehicle control (Veh column) / TNF, ratio relative to vehicle control (Veh column): donor 3, no MRS, Cmpd 10 1, ZM 0.1, PBF 0.1, SCH 0.2 μM, ADA 0.75 μg/mL
Outline: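 Human donor PBMCs (1×10^6 cells/well) were stimulated with 1 µg/mL anti-CD3 (UCHT1) plus 0.1 µg/mL anti-CD28 (CD28.2) for 24 h with test agents. IFN-γ, IL-2, TNF and GM-CSF in supernatants were measured by ELISA, Legendplex or MSD. Fold changes were compared by one-way ANOVA with Tukey correction.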

[1] = 12 donors, Cmpd 10 1-2 μM, ZM 0.2-1 μM
[2] = 12 donors, Cmpd 10 1-2 μM, ZM 0.2-1 μM, 24 h
[3] = donor 1, 24 h, Cmp 10 2 μM alone
[4] = donor 1, 24 h, Cmp 10 2 μM alone, listed as Cmp 10
[5] = donor 1, SCH-58261 0.2 μM, alone (label SCH) or with Cmp 10 2 μM (label Cmp 10)
[6] = donor 1, SCH-58261 0.6 μM, alone (label SCH) or with Cmp 10 2 μM (label Cmp 10)
[7] = donor 1, SCH-58261 2 μM, alone (label SCH) or with Cmp 10 2 μM (label Cmp 10)
[8] = donor 2, Cmpd 10 1 μM alone, listed as Cmpd 10
[9] = donor 2, PBF-509 0.1 μM, alone (label PBF) or with Cmpd 10 1 μM (label Cmpd 10)
[10] = donor 2, PBF-509 0.1 μM, alone (label PBF) or with Cmpd 10 1 μM (label Cmpd 10), listed as Cmpd 10
[11] = donor 2, ZM-241385 0.2 μM, alone (label ZM) or with Cmpd 10 1 μM (label Cmpd 10)
[12] = donor 2, ZM-241385 0.2 μM, alone (label ZM) or with Cmpd 10 1 μM (label Cmpd 10), listed as Cmpd 10

SMILES: CC1CCN(c2cc(N3CCN(S(=O)(=O)c4ccccc4)CC3)c([N+](=O)[O-])cc2F)CC1 [compound 10]
- GM-CSF fold-change (FC) vs ZM alone (9 donors, Cmpd 10 1-2 μM, ZM 0.2-1 μM): 1.1 fold
- GM-CSF mean fold-change (FC) vs vehicle (9 donors, Cmpd 10 1-2 μM, ZM 0.2-1 μM, 24 h): 1.4 fold
- IFN-γ fold-change (FC) vs ZM alone [1]: 1.3 fold
- IL-2 fold-change (FC) vs ZM alone [1]: 1.2 fold
- TNF fold-change (FC) vs ZM alone [1]: 1.3 fold
- IFN-γ mean fold-change (FC) vs vehicle [2]: 2.8 fold
- IL-2 mean fold-change (FC) vs vehicle [2]: 1.7 fold
- TNF mean fold-change (FC) vs vehicle [2]: 2.7 fold
- IFN-γ fold increase (FIG. 44) (24 h, ZM241385 1 μM, alone (label ZM241385) or with compound 10 3 μM (label compound 10)): 9.3 fold
- IFN-γ fold increase (FIG. 44) (24 h, ZM241385 10 μM, alone (label ZM241385) or with compound 10 3 μM (label compound 10)): 17.1 fold
- IFN-γ fold increase (FIG. 44) (24 h, compound 10 3 μM alone): 2.3 fold
- IFN-γ fold-change relative to vehicle control [3]: 4.9 fold
- IL-2 fold-change relative to vehicle control [3]: no effect
- TNF fold-change relative to vehicle control [3]: 4.2 fold
- IFN-γ fold-change relative to vehicle control [4]: 4.9* fold
- IL-2 fold-change relative to vehicle control [4]: 0.9 fold
- TNF fold-change relative to vehicle control [4]: 4.2* fold
- IFN-γ fold-change relative to vehicle control [5]: 11.8* fold
- IL-2 fold-change relative to vehicle control [5]: 1.5* fold
- TNF fold-change relative to vehicle control [5]: 14.2* fold
- IFN-γ fold-change relative to vehicle control [6]: 11.3* fold
- IL-2 fold-change relative to vehicle control [6]: 1.4* fold
- TNF fold-change relative to vehicle control [6]: 15.9* fold
- IFN-γ fold-change relative to vehicle control [7]: 11.0* fold
- IL-2 fold-change relative to vehicle control [7]: 1.4* fold
- TNF fold-change relative to vehicle control [7]: 14.7* fold
- IFN-γ fold-change relative to vehicle control (donor 2, Cmpd 10 1 μM alone): 1.6 fold
- IL-2 fold-change relative to vehicle control (donor 2, Cmpd 10 1 μM alone): 1.1 fold
- TNF fold-change relative to vehicle control (donor 2, Cmpd 10 1 μM alone): 1.5 fold
- IFN-γ fold-change relative to vehicle control [8]: 1.6* fold
- TNF fold-change relative to vehicle control [8]: 1.5* fold
- IFN-γ fold-change relative to vehicle control [9]: 3.5 fold
- IL-2 fold-change relative to vehicle control [9]: 2.0 fold
- TNF fold-change relative to vehicle control [9]: 2.3 fold
- IFN-γ fold-change relative to vehicle control [10]: 3.5* fold
- IL-2 fold-change relative to vehicle control [10]: 2.0* fold
- TNF fold-change relative to vehicle control [10]: 2.3* fold
- IFN-γ fold-change relative to vehicle control [11]: 8.8 fold
- IL-2 fold-change relative to vehicle control [11]: 2.6 fold
- TNF fold-change relative to vehicle control [11]: 4.0 fold
- IFN-γ fold-change relative to vehicle control [12]: 8.8* fold
- IL-2 fold-change relative to vehicle control [12]: 2.6* fold
- TNF fold-change relative to vehicle control [12]: 4.0* fold
- IFN-γ, MRS/Veh: ratio in the presence vs. the absence of MRS-1754 (donor 3): 0.8*
- IL-2, MRS/Veh: ratio in the presence vs. the absence of MRS-1754 (donor 3): 1.5*
- TNF, MRS/Veh: ratio in the presence vs. the absence of MRS-1754 (donor 3): 1.1
- IFN-γ, ratio relative to vehicle control (Veh column): 2.8 fold
- IL-2, ratio relative to vehicle control (Veh column): 2.9 fold
- TNF, ratio relative to vehicle control (Veh column): 4.1 fold
- IFN-γ, ratio relative to vehicle control (Veh column) (listed as Cmpd 10): 2.8* fold
- IL-2, ratio relative to vehicle control (Veh column) (listed as Cmpd 10): 2.9* fold
- TNF, ratio relative to vehicle control (Veh column) (listed as Cmpd 10): 4.1* fold
- IFN-γ fold-change relative to vehicle control (donor 3, Cmpd 10 1 μM alone): 1.2 fold
